Legend:
Assay type in all cases: functional
Acinetobacter baumannii [1] = assay: Antibacterial activity against Acinetobacter baumannii AB5075 assessed as reduction in microbial growth by CLSI based microdilution method
Acinetobacter baumannii [2] = assay: Potentiation of clarithromycin-induced antibacterial activity against Acinetobacter baumannii AB5075 assessed as clarithromycin MIC at 10 uM by CLSI based microdilution method (reference value: […] ug/ml)
Acinetobacter baumannii [3] = assay: Potentiation of clarithromycin-induced antibacterial activity against Acinetobacter baumannii AB5075 assessed as clarithromycin MIC at 30 uM by CLSI based microdilution method (reference value: […] ug/ml)
Acinetobacter baumannii [4] = assay: Potentiation of clarithromycin-induced antibacterial activity against Acinetobacter baumannii AB5075 assessed as assessed as fold reduction in clarithromycin MIC at 10 uM by CLSI based microdilution method
Acinetobacter baumannii [5] = assay: Potentiation of clarithromycin-induced antibacterial activity against Acinetobacter baumannii AB5075 assessed as fold reduction in clarithromycin MIC at 30 uM by broth microdilution method (reference value: 512 ug/ml)
Acinetobacter baumannii [6] = assay: Potentiation of clarithromycin-induced antibacterial activity against Acinetobacter baumannii AB5075 assessed as clarithromycin MIC at 30 uM after 2 to 9 days by broth microdilution method (reference value: […] ug/ml); details: time day 2-9
Acinetobacter baumannii [7] = assay: Potentiation of clarithromycin-induced antibacterial activity against Acinetobacter baumannii AB5075 assessed as fold reduction in clarithromycin MIC at 30 uM after 2 to 9 days by broth microdilution method; details: time day 2-9
Acinetobacter baumannii [8] = assay: Potentiation of clarithromycin-induced antibacterial activity against Acinetobacter baumannii AB5075 assessed as clarithromycin MIC at 20 uM incubated for 16 hrs by broth microdilution method (reference value: […] ug/ml)
Acinetobacter baumannii [9] = assay: Potentiation of clarithromycin-induced antibacterial activity against Acinetobacter baumannii AB5075 assessed as clarithromycin MIC at 10 uM incubated for 16 hrs by broth microdilution method (reference value: […] ug/ml)
Acinetobacter baumannii [10] = assay: Potentiation of clarithromycin-induced antibacterial activity against Acinetobacter baumannii AB5075 assessed as clarithromycin MIC at 5 uM incubated for 16 hrs by broth microdilution method (reference value: […] ug/ml)
Acinetobacter baumannii [11] = assay: Potentiation of clarithromycin-induced antibacterial activity against Acinetobacter baumannii AB5075 assessed as clarithromycin MIC at 7.5 uM incubated for 16 hrs by broth microdilution method (reference value: […] ug/ml)
Acinetobacter baumannii [12] = assay: Potentiation of clarithromycin-induced antibacterial activity against Acinetobacter baumannii AB5075 assessed as fold reduction in clarithromycin MIC at 10 uM incubated for 16 hrs in presence of clarithromycin by broth microdilution method
Acinetobacter baumannii [13] = assay: Potentiation of clarithromycin-induced antibacterial activity against Acinetobacter baumannii AB5075 assessed as fold reduction in clarithromycin MIC at 20 uM incubated for 16 hrs in presence of clarithromycin by broth microdilution method
Acinetobacter baumannii [14] = assay: Potentiation of clarithromycin-induced antibacterial activity against Acinetobacter baumannii AB5075 assessed as fold reduction in clarithromycin MIC at 30 uM incubated for 16 hrs in presence of clarithromycin by broth microdilution method
Acinetobacter baumannii [15] = assay: Potentiation of clarithromycin-induced antibacterial activity against Acinetobacter baumannii AB5075 assessed as fold reduction in clarithromycin MIC at 5 uM incubated for 16 hrs in presence of clarithromycin by broth microdilution method
Acinetobacter baumannii [16] = assay: Potentiation of clarithromycin-induced antibacterial activity against Acinetobacter baumannii AB5075 assessed as fold reduction in clarithromycin MIC at 7.5 uM incubated for 16 hrs in presence of clarithromycin broth microdilution method
Acinetobacter baumannii [17] = assay: Potentiation of clarithromycin-induced antibacterial activity against Acinetobacter baumannii 3560 assessed as fold reduction in clarithromycin MIC at 10 uM incubated for 16 hrs by broth microdilution method
Acinetobacter baumannii [18] = assay: Potentiation of clarithromycin-induced antibacterial activity against Acinetobacter baumannii AB5075 assessed as clarithromycin MIC at […] incubated for 16 hrs by broth microdilution method (reference value: […] ug/ml); details: dose 30 µM
Acinetobacter baumannii [19] = assay: Antibacterial activity against Acinetobacter baumannii AB5075 assessed as reduction in microbial growth incubated for 16 hrs by broth microdilution method
Acinetobacter baumannii [20] = assay: Potentiation of clarithromycin-induced antibacterial activity against Acinetobacter baumannii 3785 assessed as fold reduction in clarithromycin MIC at 10 uM incubated for 16 hrs by broth microdilution method
Acinetobacter baumannii [21] = assay: Potentiation of clarithromycin-induced antibacterial activity against Acinetobacter baumannii 3806 assessed as fold reduction in clarithromycin MIC at 10 uM incubated for 16 hrs by broth microdilution method
Acinetobacter baumannii [22] = assay: Potentiation of clarithromycin-induced antibacterial activity against Acinetobacter baumannii 3927 assessed as fold reduction in clarithromycin MIC at 10 uM incubated for 16 hrs by broth microdilution method
Acinetobacter baumannii [23] = assay: Potentiation of clarithromycin-induced antibacterial activity against Acinetobacter baumannii 4025 assessed as fold reduction in clarithromycin MIC at 10 uM incubated for 16 hrs by broth microdilution method
Acinetobacter baumannii [24] = assay: Potentiation of clarithromycin-induced antibacterial activity against Acinetobacter baumannii 4026 assessed as fold reduction in clarithromycin MIC at 10 uM incubated for 16 hrs by broth microdilution method
Acinetobacter baumannii [25] = assay: Potentiation of clarithromycin-induced antibacterial activity against Acinetobacter baumannii 4027 assessed as fold reduction in clarithromycin MIC at 10 uM incubated for 16 hrs by broth microdilution method
Acinetobacter baumannii [26] = assay: Potentiation of clarithromycin-induced antibacterial activity against Acinetobacter baumannii 4052 assessed as fold reduction in clarithromycin MIC at 10 uM incubated for 16 hrs by broth microdilution method
Acinetobacter baumannii [27] = assay: Potentiation of clarithromycin-induced antibacterial activity against Acinetobacter baumannii 4269 assessed as fold reduction in clarithromycin MIC at 10 uM incubated for 16 hrs by broth microdilution method
Acinetobacter baumannii [28] = assay: Potentiation of clarithromycin-induced antibacterial activity against Acinetobacter baumannii 4448 assessed as fold reduction in clarithromycin MIC at 10 uM incubated for 16 hrs by broth microdilution method
Acinetobacter baumannii [29] = assay: Potentiation of clarithromycin-induced antibacterial activity against Acinetobacter baumannii 4456 assessed as fold reduction in clarithromycin MIC at 10 uM incubated for 16 hrs by broth microdilution method
Acinetobacter baumannii [30] = assay: Potentiation of clarithromycin-induced antibacterial activity against Acinetobacter baumannii 4490 assessed as fold reduction in clarithromycin MIC at 10 uM incubated for 16 hrs by broth microdilution method
Acinetobacter baumannii [31] = assay: Potentiation of clarithromycin-induced antibacterial activity against Acinetobacter baumannii 4498 assessed as fold reduction in clarithromycin MIC at 10 uM incubated for 16 hrs by broth microdilution metho
Acinetobacter baumannii [32] = assay: Potentiation of clarithromycin-induced antibacterial activity against Acinetobacter baumannii 4795 assessed as fold reduction in clarithromycin MIC at 10 uM incubated for 16 hrs by broth microdilution method
Acinetobacter baumannii [33] = assay: Potentiation of clarithromycin-induced antibacterial activity against Acinetobacter baumannii 4857 assessed as fold reduction in clarithromycin MIC at 10 uM incubated for 16 hrs by broth microdilution method
Acinetobacter baumannii [34] = assay: Potentiation of clarithromycin-induced antibacterial activity against Acinetobacter baumannii 4878 assessed as fold reduction in clarithromycin MIC at 10 uM incubated for 16 hrs by broth microdilution method
Acinetobacter baumannii [35] = assay: Potentiation of clarithromycin-induced antibacterial activity against Acinetobacter baumannii 4957 assessed as fold reduction in clarithromycin MIC at 10 uM incubated for 16 hrs by broth microdilution method
Acinetobacter baumannii [36] = assay: Potentiation of clarithromycin-induced antibacterial activity against Acinetobacter baumannii 4991 assessed as fold reduction in clarithromycin MIC at 10 uM incubated for 16 hrs by broth microdilution method
Acinetobacter baumannii [37] = assay: Potentiation of clarithromycin-induced antibacterial activity against Acinetobacter baumannii 5001 assessed as fold reduction in clarithromycin MIC at 10 uM incubated for 16 hrs by broth microdilution method
Acinetobacter baumannii [38] = assay: Potentiation of clarithromycin-induced antibacterial activity against Acinetobacter baumannii 5197 assessed as fold reduction in clarithromycin MIC at 10 uM incubated for 16 hrs by broth microdilution method
Acinetobacter baumannii [39] = assay: Potentiation of clarithromycin-induced antibacterial activity against Acinetobacter baumannii 5256 assessed as fold reduction in clarithromycin MIC at 10 uM incubated for 16 hrs by broth microdilution method
Acinetobacter baumannii [40] = assay: Potentiation of clarithromycin-induced antibacterial activity against Acinetobacter baumannii 5711 assessed as fold reduction in clarithromycin MIC at 10 uM incubated for 16 hrs by broth microdilution method
Acinetobacter baumannii [41] = assay: Potentiation of clarithromycin-induced antibacterial activity against Acinetobacter baumannii 8967 assessed as fold reduction in clarithromycin MIC at 10 uM incubated for 16 hrs by broth microdilution method

For `Cl.Nc1nc(-c2ccc(NC(=O)c3cc(Cl)cc(Cl)c3)cc2)c[nH]1`, the MIC (Acinetobacter baumannii [1]) was 100 µM, the MIC (Acinetobacter baumannii [2]) was 2 µg/mL and the MIC (Acinetobacter baumannii [3]) was 0.25 µg/mL. For the same molecule, the “fold change (FC)” value (Acinetobacter baumannii [4]) was 16, the MIC (Acinetobacter baumannii [5]) was 2 µg/mL and the MIC (Acinetobacter baumannii [6]) was 0.25 µg/mL. For the same molecule, the “fold change (FC)” value (Acinetobacter baumannii [7]) was 128.
Work on `Cl.Nc1nc(-c2ccc(NC(=O)c3ccc(Cl)c(Cl)c3)cc2F)c[nH]1` yielded an MIC (Acinetobacter baumannii [8]) of 0.5 µg/mL, an MIC (Acinetobacter baumannii [9]) of 0.5 µg/mL and an MIC (Acinetobacter baumannii [10]) of 8 µg/mL. For the same molecule, the MIC (Acinetobacter baumannii [11]) was 1 µg/mL, the “fold change (FC)” value (Acinetobacter baumannii [12]) was 64 and the “fold change (FC)” value (Acinetobacter baumannii [13]) was 64. For the same molecule, the “fold change (FC)” value (Acinetobacter baumannii [14]) was 64, the “fold change (FC)” value (Acinetobacter baumannii [15]) was 4 and the “fold change (FC)” value (Acinetobacter baumannii [16]) was 32. For the same molecule, the “fold change (FC)” value (Acinetobacter baumannii [17]) was 8, the MIC (Acinetobacter baumannii [18]) was 0.5 µg/mL and the MIC (Acinetobacter baumannii [19]) was greater than 200 µM. The “fold change (FC)” value (Acinetobacter baumannii [20]) was 8, the “fold change (FC)” value (Acinetobacter baumannii [21]) was 8 and the “fold change (FC)” value (Acinetobacter baumannii [22]) was 8. The “fold change (FC)” value (Acinetobacter baumannii [23]) was 8, the “fold change (FC)” value (Acinetobacter baumannii [24]) was 8 and the “fold change (FC)” value (Acinetobacter baumannii [25]) was 8. For the same molecule, the “fold change (FC)” value (Acinetobacter baumannii [26]) was 8, the “fold change (FC)” value (Acinetobacter baumannii [27]) was 8 and the “fold change (FC)” value (Acinetobacter baumannii [28]) was 8. For the same molecule, the “fold change (FC)” value (Acinetobacter baumannii [29]) was 8, the “fold change (FC)” value (Acinetobacter baumannii [30]) was 8 and the “fold change (FC)” value (Acinetobacter baumannii [31]) was 8. The “fold change (FC)” value (Acinetobacter baumannii [32]) was 8, the “fold change (FC)” value (Acinetobacter baumannii [33]) was 8 and the “fold change (FC)” value (Acinetobacter baumannii [34]) was 8. For the same molecule, the “fold change (FC)” value (Acinetobacter baumannii [35]) was 8, the “fold change (FC)” value (Acinetobacter baumannii [36]) was 8 and the “fold change (FC)” value (Acinetobacter baumannii [37]) was 8. The “fold change (FC)” value (Acinetobacter baumannii [38]) was 8, the “fold change (FC)” value (Acinetobacter baumannii [39]) was 8 and the “fold change (FC)” value (Acinetobacter baumannii [40]) was 8. The “fold change (FC)” value (Acinetobacter baumannii [41]) was 8.
